# Compound: NC(=O)CCCCC1CCSS1 [lipoamide]
# Test: thermal stability z-score vs DMSO; higher = more thermally stabilized by treatment
# Conditions: HeLa; lipoamide concentration 100 µM; arsenate co-treatment: 1 mM arsenate 1 h
# Description: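 Cellular thermal proteome profiling in HeLa cells. Cells were treated with 100 µM lipoamide for 1 h, with or without 1 mM arsenate for a further 1 h, then heated to ten temperatures (37-66.3 °C), and soluble protein was quantified by TMT mass spectrometry relative to 0.1% DMSO controls. The thermal stability score (sum of log2 fold changes minus the abundance score) was transformed to a z-score; mean of n = 3 experiments.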
# 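Also: each temperature applied for 3 min, abundance score taken as mean log2 fold change at the two lowest temperatures, z-score obtained by mean subtraction and division by SD.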
# Chain of UniProt Q9UL54 (Q9UL54 whole entry): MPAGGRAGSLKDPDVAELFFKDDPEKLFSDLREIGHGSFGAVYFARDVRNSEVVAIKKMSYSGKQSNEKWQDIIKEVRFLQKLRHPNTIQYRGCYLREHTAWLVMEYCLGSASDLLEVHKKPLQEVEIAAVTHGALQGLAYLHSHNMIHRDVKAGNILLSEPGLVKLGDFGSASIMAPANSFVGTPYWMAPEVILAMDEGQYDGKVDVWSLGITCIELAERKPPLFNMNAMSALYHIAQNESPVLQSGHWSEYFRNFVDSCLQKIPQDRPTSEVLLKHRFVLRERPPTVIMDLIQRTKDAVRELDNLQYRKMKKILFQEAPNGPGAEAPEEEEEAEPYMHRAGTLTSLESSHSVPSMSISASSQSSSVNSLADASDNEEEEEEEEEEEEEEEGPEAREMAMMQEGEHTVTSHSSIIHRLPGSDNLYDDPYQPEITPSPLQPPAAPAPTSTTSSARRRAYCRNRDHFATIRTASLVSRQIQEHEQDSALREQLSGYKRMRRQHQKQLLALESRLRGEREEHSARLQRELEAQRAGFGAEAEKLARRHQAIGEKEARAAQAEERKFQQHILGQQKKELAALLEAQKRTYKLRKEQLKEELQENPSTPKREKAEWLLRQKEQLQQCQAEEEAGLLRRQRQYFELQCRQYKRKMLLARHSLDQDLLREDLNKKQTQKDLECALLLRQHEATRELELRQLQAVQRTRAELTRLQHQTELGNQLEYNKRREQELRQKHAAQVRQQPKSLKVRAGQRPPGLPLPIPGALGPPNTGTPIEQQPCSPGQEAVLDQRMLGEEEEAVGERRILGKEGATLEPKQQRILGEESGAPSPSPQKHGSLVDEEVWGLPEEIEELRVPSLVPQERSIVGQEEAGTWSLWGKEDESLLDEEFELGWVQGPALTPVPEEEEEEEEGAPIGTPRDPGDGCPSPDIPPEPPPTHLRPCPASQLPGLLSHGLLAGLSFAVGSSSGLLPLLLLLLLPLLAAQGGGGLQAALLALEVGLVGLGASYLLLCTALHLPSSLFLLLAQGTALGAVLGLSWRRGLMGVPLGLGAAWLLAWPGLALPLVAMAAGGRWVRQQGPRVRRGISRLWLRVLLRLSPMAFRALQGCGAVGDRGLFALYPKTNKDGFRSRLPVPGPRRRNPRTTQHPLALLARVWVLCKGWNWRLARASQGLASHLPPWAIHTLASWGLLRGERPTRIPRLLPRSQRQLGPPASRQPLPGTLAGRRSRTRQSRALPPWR
# Chain of UniProt Q5HYK3 (Q5HYK3 whole entry): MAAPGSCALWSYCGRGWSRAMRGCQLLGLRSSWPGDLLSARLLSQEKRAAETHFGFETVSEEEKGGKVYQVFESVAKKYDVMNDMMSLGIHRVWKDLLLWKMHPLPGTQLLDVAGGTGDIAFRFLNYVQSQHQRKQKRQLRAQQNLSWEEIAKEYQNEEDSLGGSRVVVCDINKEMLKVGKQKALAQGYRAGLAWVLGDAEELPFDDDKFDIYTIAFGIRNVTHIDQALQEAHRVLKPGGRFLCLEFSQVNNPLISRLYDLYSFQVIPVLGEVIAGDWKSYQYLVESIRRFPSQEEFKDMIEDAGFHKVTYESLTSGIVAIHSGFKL
# Chain of UniProt P28715 (P28715 whole entry): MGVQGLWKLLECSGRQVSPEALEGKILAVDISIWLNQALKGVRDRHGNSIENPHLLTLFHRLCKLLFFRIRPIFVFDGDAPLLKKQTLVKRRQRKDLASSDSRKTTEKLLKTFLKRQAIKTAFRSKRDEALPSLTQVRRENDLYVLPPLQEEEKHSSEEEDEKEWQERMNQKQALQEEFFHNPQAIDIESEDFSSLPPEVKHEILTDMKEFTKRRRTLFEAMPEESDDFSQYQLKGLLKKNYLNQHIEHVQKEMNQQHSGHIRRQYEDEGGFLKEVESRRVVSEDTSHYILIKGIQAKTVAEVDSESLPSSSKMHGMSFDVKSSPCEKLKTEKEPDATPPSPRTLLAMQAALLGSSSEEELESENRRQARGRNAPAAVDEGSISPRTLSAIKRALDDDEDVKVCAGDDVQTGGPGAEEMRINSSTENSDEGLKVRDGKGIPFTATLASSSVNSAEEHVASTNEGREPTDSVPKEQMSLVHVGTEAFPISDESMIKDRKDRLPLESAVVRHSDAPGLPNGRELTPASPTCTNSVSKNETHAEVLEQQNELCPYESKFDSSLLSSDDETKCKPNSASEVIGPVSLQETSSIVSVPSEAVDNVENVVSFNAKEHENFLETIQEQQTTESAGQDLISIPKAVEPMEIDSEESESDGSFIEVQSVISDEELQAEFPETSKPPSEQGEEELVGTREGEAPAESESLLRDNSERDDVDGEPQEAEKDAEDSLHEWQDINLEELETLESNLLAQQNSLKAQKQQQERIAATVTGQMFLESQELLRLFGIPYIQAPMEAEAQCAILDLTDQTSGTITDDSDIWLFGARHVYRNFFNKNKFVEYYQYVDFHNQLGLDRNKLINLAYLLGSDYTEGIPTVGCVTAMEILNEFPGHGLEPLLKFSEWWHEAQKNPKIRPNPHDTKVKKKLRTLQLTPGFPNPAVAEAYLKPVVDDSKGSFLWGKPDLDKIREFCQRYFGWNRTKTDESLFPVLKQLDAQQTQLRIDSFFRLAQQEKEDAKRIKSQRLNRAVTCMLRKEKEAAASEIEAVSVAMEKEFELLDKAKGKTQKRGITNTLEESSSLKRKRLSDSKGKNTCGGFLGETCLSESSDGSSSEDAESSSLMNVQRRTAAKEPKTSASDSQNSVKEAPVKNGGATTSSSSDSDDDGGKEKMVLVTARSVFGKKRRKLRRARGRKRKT
# Chain of UniProt P15586 (P15586 whole entry): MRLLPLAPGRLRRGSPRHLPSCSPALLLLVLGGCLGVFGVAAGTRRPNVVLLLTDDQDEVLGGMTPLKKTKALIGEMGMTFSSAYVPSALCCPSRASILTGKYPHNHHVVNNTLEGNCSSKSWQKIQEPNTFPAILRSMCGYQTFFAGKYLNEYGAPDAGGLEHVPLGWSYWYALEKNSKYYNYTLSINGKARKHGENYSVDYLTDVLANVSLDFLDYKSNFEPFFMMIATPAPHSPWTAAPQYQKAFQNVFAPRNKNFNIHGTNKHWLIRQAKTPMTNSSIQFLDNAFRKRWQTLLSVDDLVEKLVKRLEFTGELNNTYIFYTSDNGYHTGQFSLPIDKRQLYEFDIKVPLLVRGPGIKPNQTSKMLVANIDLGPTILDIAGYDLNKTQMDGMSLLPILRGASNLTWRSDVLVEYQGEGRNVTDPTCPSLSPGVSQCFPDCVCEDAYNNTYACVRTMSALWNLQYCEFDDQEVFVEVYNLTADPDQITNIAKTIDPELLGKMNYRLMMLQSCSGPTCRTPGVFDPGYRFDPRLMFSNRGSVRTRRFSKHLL
# Chain of UniProt Q9NQ34 (Q9NQ34 whole entry): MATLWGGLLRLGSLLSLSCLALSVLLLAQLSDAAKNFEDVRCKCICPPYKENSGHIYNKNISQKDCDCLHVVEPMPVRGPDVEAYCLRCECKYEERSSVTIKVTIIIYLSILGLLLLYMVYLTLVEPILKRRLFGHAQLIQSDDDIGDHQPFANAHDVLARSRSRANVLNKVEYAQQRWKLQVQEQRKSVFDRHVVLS
# Chain of UniProt P48047 (P48047 whole entry): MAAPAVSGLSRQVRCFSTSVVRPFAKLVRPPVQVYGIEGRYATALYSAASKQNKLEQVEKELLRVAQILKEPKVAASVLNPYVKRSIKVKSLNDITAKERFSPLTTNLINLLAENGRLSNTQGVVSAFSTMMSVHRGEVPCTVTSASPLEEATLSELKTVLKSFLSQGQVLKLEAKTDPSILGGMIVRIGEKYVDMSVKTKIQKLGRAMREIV
# Chain of UniProt Q9UBR2 (Q9UBR2 whole entry): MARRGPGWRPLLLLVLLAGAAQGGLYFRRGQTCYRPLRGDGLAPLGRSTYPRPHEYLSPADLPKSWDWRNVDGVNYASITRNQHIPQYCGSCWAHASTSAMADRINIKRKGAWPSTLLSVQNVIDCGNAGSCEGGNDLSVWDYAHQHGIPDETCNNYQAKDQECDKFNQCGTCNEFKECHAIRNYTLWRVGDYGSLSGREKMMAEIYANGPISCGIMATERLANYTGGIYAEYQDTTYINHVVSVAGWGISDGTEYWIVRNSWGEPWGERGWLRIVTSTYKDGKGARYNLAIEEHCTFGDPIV
# Chain of UniProt Q9HCN8 (Q9HCN8 whole entry): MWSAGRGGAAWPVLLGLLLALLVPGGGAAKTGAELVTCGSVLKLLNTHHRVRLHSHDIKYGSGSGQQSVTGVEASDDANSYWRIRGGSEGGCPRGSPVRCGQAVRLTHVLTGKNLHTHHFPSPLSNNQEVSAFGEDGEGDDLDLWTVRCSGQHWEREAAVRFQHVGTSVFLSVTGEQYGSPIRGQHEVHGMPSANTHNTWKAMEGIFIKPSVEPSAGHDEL
# Chain of UniProt Q8N8R3 (Q8N8R3 whole entry): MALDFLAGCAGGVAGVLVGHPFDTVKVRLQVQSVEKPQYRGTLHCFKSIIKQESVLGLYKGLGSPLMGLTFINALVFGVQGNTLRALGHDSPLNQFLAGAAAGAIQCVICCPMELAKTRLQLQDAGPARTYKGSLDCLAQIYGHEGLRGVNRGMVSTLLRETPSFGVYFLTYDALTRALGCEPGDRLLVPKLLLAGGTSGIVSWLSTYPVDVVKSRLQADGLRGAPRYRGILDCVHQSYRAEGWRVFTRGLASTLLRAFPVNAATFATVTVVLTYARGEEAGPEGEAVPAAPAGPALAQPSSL
# Chain of UniProt Q9BRP1 (Q9BRP1 whole entry): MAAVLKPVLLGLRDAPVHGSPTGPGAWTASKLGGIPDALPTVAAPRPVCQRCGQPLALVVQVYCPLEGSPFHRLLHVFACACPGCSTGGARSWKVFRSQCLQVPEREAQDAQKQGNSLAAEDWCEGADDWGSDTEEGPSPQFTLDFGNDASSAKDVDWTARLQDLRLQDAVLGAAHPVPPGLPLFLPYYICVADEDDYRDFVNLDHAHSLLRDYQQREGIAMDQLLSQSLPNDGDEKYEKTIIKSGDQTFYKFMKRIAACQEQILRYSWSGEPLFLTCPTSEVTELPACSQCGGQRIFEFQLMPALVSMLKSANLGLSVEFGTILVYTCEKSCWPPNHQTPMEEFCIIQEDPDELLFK
row,Target,thermal stability z-score
1,BRI3BP (UniProt Q8WY22),0.227
2,ERCC5 (UniProt P28715),0.121
3,TRIM32 (UniProt Q13049),-0.257
4,SRSF2 (UniProt Q01130),0.414
5,LSM14A (UniProt Q8ND56),0.62
6,TTC13 (UniProt Q8NBP0),-0.787
7,FOXRED1 (UniProt Q96CU9),-0.111
8,NDFIP1 (UniProt Q9BT67),1.07
9,NPM3 (UniProt O75607),0.175
10,CTSZ (UniProt Q9UBR2),-1.02
11,USP25 (UniProt Q9UHP3),-0.18
12,FTSJ3 (UniProt Q8IY81),-0.198
13,TOPBP1 (UniProt Q92547),0.0371
14,DAB2IP (UniProt Q5VWQ8),-0.101
15,AP2M1 (UniProt Q96CW1),0.48
16,PNPT1 (UniProt Q8TCS8),-0.261
17,DPH7 (UniProt Q9BTV6),-1.62
18,FAM134C (UniProt Q86VR2),0.622
19,SDF2L1 (UniProt Q9HCN8),-2.27
20,SH3BP5L (UniProt Q7L8J4),0.286
21,COQ5 (UniProt Q5HYK3),0.471
22,C12ORF45 (UniProt Q8N5I9),0.42
23,POLR3C (UniProt Q9BUI4),0.213
24,SLC25A29 (UniProt Q8N8R3),0.136

row,Target,thermal stability z-score
1,MRPL33 (UniProt O75394),-0.539
2,GNS (UniProt P15586),-0.0525
3,ERCC1 (UniProt P07992),-0.168
4,CD2AP (UniProt Q9Y5K6),0.591
5,CCDC93 (UniProt Q567U6),-0.728
6,NDUFS3 (UniProt O75489),-0.384
7,FNBP4 (UniProt Q8N3X1),0.826
8,HIRIP3 (UniProt Q9BW71),-0.148
9,RAP1A (UniProt P62834),0.141
10,EIF2A (UniProt Q9BY44),0.673
11,CAST (UniProt P20810),0.525
12,CCND1 (UniProt P24385),-0.0213
13,FLNB (UniProt O75369),0.683
14,HERPUD1 (UniProt Q15011),0.186
15,TGIF1 (UniProt Q15583),-0.557
16,DHX15 (UniProt O43143),-0.319
17,SMARCD1 (UniProt Q96GM5),-0.0223
18,NUTF2 (UniProt P61970),0.312
19,FYCO1 (UniProt Q9BQS8),-0.321
20,MAP7D1 (UniProt Q3KQU3),0.172
21,HMBS (UniProt P08397),0.513
22,ATP5D (UniProt P30049),1.09
23,VWA8 (UniProt A3KMH1),-0.654
24,TAOK2 (UniProt Q9UL54),-0.161

row,Target,thermal stability z-score
1,KIF23 (UniProt Q02241),0.207
2,PLS1 (UniProt Q14651),0.258
3,PARN (UniProt O95453),0.181
4,TUBB2A (UniProt Q13885),0.383
5,PPL (UniProt O60437),-0.117
6,MECR (UniProt Q9BV79),0.217
7,TMCO3 (UniProt Q6UWJ1),-0.807
8,PDCD2L (UniProt Q9BRP1),0.275
9,TACO1 (UniProt Q9BSH4),0.0383
10,EEA1 (UniProt Q15075),0.149
11,SMAP2 (UniProt Q8WU79),-1.95
12,LDHA (UniProt P00338),0.685
13,TMEM9B (UniProt Q9NQ34),0.157
14,RPS27A (UniProt P62979),0.106
15,RIN1 (UniProt Q13671),-0.105
16,TLK2 (UniProt Q86UE8),-0.838
17,MAGT1 (UniProt Q9H0U3),-3.45
18,ATP5O (UniProt P48047),0.0702
19,UQCRH (UniProt P07919),1.35
20,PHLDA2 (UniProt Q53GA4),-0.116
21,KIDINS220 (UniProt Q9ULH0),-0.105
22,UBE2Z (UniProt Q9H832),-0.25
23,SERPINB8 (UniProt P50452),0.899

# Same assay, conditions: HeLa; lipoamide concentration 100 µM; arsenate co-treatment: none
row,Target,thermal stability z-score
1,BRI3BP (UniProt Q8WY22),0.0879
2,ERCC5 (UniProt P28715),0.0638
3,TRIM32 (UniProt Q13049),-0.125
4,SRSF2 (UniProt Q01130),0.274
5,LSM14A (UniProt Q8ND56),-0.111
6,TTC13 (UniProt Q8NBP0),-1.08
7,FOXRED1 (UniProt Q96CU9),-0.24
8,NDFIP1 (UniProt Q9BT67),0.0758
9,NPM3 (UniProt O75607),0.102
10,CTSZ (UniProt Q9UBR2),-0.748
11,USP25 (UniProt Q9UHP3),-0.113
12,FTSJ3 (UniProt Q8IY81),0.792
13,TOPBP1 (UniProt Q92547),0.0228
14,DAB2IP (UniProt Q5VWQ8),-0.023
15,AP2M1 (UniProt Q96CW1),0.0269
16,PNPT1 (UniProt Q8TCS8),-0.271
17,DPH7 (UniProt Q9BTV6),0.272
18,FAM134C (UniProt Q86VR2),-0.494
19,SDF2L1 (UniProt Q9HCN8),-1.73
20,SH3BP5L (UniProt Q7L8J4),0.0604
21,COQ5 (UniProt Q5HYK3),0.639
22,C12ORF45 (UniProt Q8N5I9),0.511
23,POLR3C (UniProt Q9BUI4),0.0462
24,SLC25A29 (UniProt Q8N8R3),-0.0401

row,Target,thermal stability z-score
1,MRPL33 (UniProt O75394),-0.723
2,GNS (UniProt P15586),-0.0481
3,ERCC1 (UniProt P07992),0.0263
4,CD2AP (UniProt Q9Y5K6),0.887
5,CCDC93 (UniProt Q567U6),-0.078
6,NDUFS3 (UniProt O75489),0.139
7,FNBP4 (UniProt Q8N3X1),1.2
8,HIRIP3 (UniProt Q9BW71),0.462
9,RAP1A (UniProt P62834),-0.173
10,EIF2A (UniProt Q9BY44),0.102
11,CAST (UniProt P20810),0.428
12,CCND1 (UniProt P24385),-0.202
13,FLNB (UniProt O75369),0.798
14,HERPUD1 (UniProt Q15011),-0.201
15,TGIF1 (UniProt Q15583),-0.274
16,DHX15 (UniProt O43143),-0.389
17,SMARCD1 (UniProt Q96GM5),0.0841
18,NUTF2 (UniProt P61970),0.256
19,FYCO1 (UniProt Q9BQS8),-0.354
20,MAP7D1 (UniProt Q3KQU3),-0.0726
21,HMBS (UniProt P08397),0.573
22,ATP5D (UniProt P30049),0.762
23,VWA8 (UniProt A3KMH1),-0.345
24,TAOK2 (UniProt Q9UL54),-0.0781

row,Target,thermal stability z-score
1,KIF23 (UniProt Q02241),0.324
2,PLS1 (UniProt Q14651),0.506
3,PARN (UniProt O95453),-0.273
4,TUBB2A (UniProt Q13885),0.458
5,PPL (UniProt O60437),-0.141
6,MECR (UniProt Q9BV79),-0.251
7,TMCO3 (UniProt Q6UWJ1),-1.31
8,PDCD2L (UniProt Q9BRP1),0.139
9,TACO1 (UniProt Q9BSH4),-0.0229
10,EEA1 (UniProt Q15075),0.231
11,SMAP2 (UniProt Q8WU79),-0.774
12,LDHA (UniProt P00338),0.577
13,TMEM9B (UniProt Q9NQ34),0.52
14,RPS27A (UniProt P62979),-0.431
15,RIN1 (UniProt Q13671),-0.041
16,TLK2 (UniProt Q86UE8),0.0336
17,MAGT1 (UniProt Q9H0U3),-2.9
18,ATP5O (UniProt P48047),-0.283
19,UQCRH (UniProt P07919),1.45
20,PHLDA2 (UniProt Q53GA4),0.13
21,KIDINS220 (UniProt Q9ULH0),0.516
22,UBE2Z (UniProt Q9H832),-0.264
23,SERPINB8 (UniProt P50452),0.458

# Compound: O=[As]([O-])(O)O.[K+] [potassium arsenate]
# Test: as above
# Conditions: HeLa; arsenate concentration 1 mM
# Description: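 Cellular thermal proteome profiling in HeLa cells treated with 1 mM arsenate for 1 h (DMSO pretreatment), heated to ten temperatures (37-66.3 °C). Soluble protein was quantified by TMT mass spectrometry relative to DMSO controls; the thermal stability score was transformed to a z-score; mean of n = 3 experiments.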
row,Target,thermal stability z-score
1,BRI3BP (UniProt Q8WY22),-0.544
2,ERCC5 (UniProt P28715),0.401
3,TRIM32 (UniProt Q13049),-3.56
4,SRSF2 (UniProt Q01130),-0.0469
5,LSM14A (UniProt Q8ND56),1.03
6,TTC13 (UniProt Q8NBP0),0.595
7,FOXRED1 (UniProt Q96CU9),0.0548
8,NDFIP1 (UniProt Q9BT67),1.41
9,NPM3 (UniProt O75607),-0.95
10,CTSZ (UniProt Q9UBR2),0.529
11,USP25 (UniProt Q9UHP3),0.667
12,FTSJ3 (UniProt Q8IY81),-0.519
13,TOPBP1 (UniProt Q92547),-0.623
14,DAB2IP (UniProt Q5VWQ8),-0.398
15,AP2M1 (UniProt Q96CW1),0.0231
16,PNPT1 (UniProt Q8TCS8),0.418
17,DPH7 (UniProt Q9BTV6),0.093
18,FAM134C (UniProt Q86VR2),1.35
19,SDF2L1 (UniProt Q9HCN8),0.265
20,SH3BP5L (UniProt Q7L8J4),0.227
21,COQ5 (UniProt Q5HYK3),1.52
22,C12ORF45 (UniProt Q8N5I9),0.591
23,POLR3C (UniProt Q9BUI4),-0.411
24,SLC25A29 (UniProt Q8N8R3),-0.111

row,Target,thermal stability z-score
1,MRPL33 (UniProt O75394),-0.812
2,GNS (UniProt P15586),-0.512
3,ERCC1 (UniProt P07992),0.0982
4,CD2AP (UniProt Q9Y5K6),0.988
5,CCDC93 (UniProt Q567U6),0.0272
6,NDUFS3 (UniProt O75489),-0.466
7,FNBP4 (UniProt Q8N3X1),-0.51
8,HIRIP3 (UniProt Q9BW71),0.468
9,RAP1A (UniProt P62834),-0.254
10,EIF2A (UniProt Q9BY44),1.13
11,CAST (UniProt P20810),0.122
12,CCND1 (UniProt P24385),0.0378
13,FLNB (UniProt O75369),-0.574
14,HERPUD1 (UniProt Q15011),-0.94
15,TGIF1 (UniProt Q15583),-0.203
16,DHX15 (UniProt O43143),0.00808
17,SMARCD1 (UniProt Q96GM5),-0.164
18,NUTF2 (UniProt P61970),-0.609
19,FYCO1 (UniProt Q9BQS8),-0.152
20,MAP7D1 (UniProt Q3KQU3),-0.702
21,HMBS (UniProt P08397),0.0804
22,ATP5D (UniProt P30049),0.463
23,VWA8 (UniProt A3KMH1),-0.561
24,TAOK2 (UniProt Q9UL54),-0.0359

row,Target,thermal stability z-score
1,KIF23 (UniProt Q02241),-0.0543
2,PLS1 (UniProt Q14651),-0.0678
3,PARN (UniProt O95453),0.95
4,TUBB2A (UniProt Q13885),0.692
5,PPL (UniProt O60437),0.125
6,MECR (UniProt Q9BV79),0.152
7,TMCO3 (UniProt Q6UWJ1),0.2
8,PDCD2L (UniProt Q9BRP1),-0.161
9,TACO1 (UniProt Q9BSH4),-0.113
10,EEA1 (UniProt Q15075),-0.325
11,SMAP2 (UniProt Q8WU79),-1.45
12,LDHA (UniProt P00338),-0.436
13,TMEM9B (UniProt Q9NQ34),0.838
14,RPS27A (UniProt P62979),-1.18
15,RIN1 (UniProt Q13671),0.0874
16,TLK2 (UniProt Q86UE8),0.502
17,MAGT1 (UniProt Q9H0U3),0.251
18,ATP5O (UniProt P48047),-0.119
19,UQCRH (UniProt P07919),0.58
20,PHLDA2 (UniProt Q53GA4),1.41
21,KIDINS220 (UniProt Q9ULH0),0.0983
22,UBE2Z (UniProt Q9H832),-0.55
23,SERPINB8 (UniProt P50452),-1.08

# — the supplement of paper PMC12463676, “Small-molecule dissolution of stress granules by redox modulation benefits ALS models” (Nature Chemical Biology, 2025)
